Read-outs that look alike come from different tables or passages of the source. Where a SMILES comes first, the peptide text is derived from it. Where no end group is shown, it is not given here. [ ]: non-standard residue; d: D form. Cha = N[C@@H](CC1CCCCC1)C(=O)O
How the values were obtained:
[1] = Circular dichroism spectroscopy, helical residues per peptide chain; type: physicochemical; details: calculated from [θ]222
Procedure: Circular Dichroism—CD spectra were obtained on a JASCO J-600 spectropolarimeter at 20° C. Four spectra were averaged and the data smoothed by the JASCO software. The instrument was calibrated with ammonium (+)-10-camphorsulfonate. Peptide concentrations were verified from the absorption at 280 nm, using an extinction coefficient of 5700 M^−1 for the single tryptophan. Data are expressed as the number of helical residues per peptide chain, as calculated from −[θ]222×30/28,000, where [θ]222 is the mean residue elipticity ([θ]) at 222 nm, as was described previously (Barbier, J. R., et al. (2005) J Biol Chem. 280:23771-23777).

PTHR-delNt = biological target: T1, PTHR-delNt (Homo sapiens, UniProt Q03431, DEL24-181); test: Competition binding in COS-7 cell membranes with 125I-[Aib1,3,M]PTH(1-15)NH2 tracer; details: for reduction (alteration) of binding affinity for PTHR-delNt relative to parent peptide: versus the respective parent peptide; for IC50: COS-7 membranes cotransfected with negative-dominant Gαs, read-out: PTHR-delNT (COS-7) IC50
T1 construct: expressed in transfected cells; host or cells: COS-7 cells, transient co-transfection; membranes prepared
T1 sequence (Q03431 with tags, fused parts or gaps DEL24-181): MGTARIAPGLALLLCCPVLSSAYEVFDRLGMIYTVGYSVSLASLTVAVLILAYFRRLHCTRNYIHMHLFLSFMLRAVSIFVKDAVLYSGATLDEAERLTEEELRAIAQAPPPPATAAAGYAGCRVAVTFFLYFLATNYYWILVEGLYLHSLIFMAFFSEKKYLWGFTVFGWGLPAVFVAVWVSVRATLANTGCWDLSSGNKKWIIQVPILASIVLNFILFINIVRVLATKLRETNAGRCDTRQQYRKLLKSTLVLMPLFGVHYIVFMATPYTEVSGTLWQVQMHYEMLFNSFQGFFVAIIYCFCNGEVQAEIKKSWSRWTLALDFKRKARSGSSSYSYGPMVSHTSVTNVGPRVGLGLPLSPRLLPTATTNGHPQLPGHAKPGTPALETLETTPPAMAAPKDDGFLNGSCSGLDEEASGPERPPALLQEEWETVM
Procedure: PTHR-delNt is a derivative of the human PTHR that is deleted for most (Ala^24-Arg^181) of the amino-terminal extracellular domain (Shimizu, M., et al. (2001) Endocrinology 142:3068-3074). This PTHR construct was expressed in COS-7 cells via transient DNA transfection. For cAMP assays, the cells were transfected in 24-well plates using 0.2 μg of plasmid DNA and 0.6 μl of Fugene-6 reagent (Roche Diagnostics, Indianapolis Ind.) per well, and assays were performed on the intact cells three to four days after transfection. For binding assays, cell membranes were prepared from transfected COS-7 cells. To increase the maximal binding of ^125I-[Aib^1,3,M]PTH(1-15)NH2 to PTHR-delNt in these membranes, the cells were cotransfected with a negative dominant mutant Gαs protein (Gαs^ND). This mutant Gαs subunit is thought to couple to cognate receptors, and thus stabilize high affinity receptor conformations, more efficiently than does wild-type Gαs, without increasing basal cAMP levels (Berlot, C. H. (2002) J Biol Chem 277:21080-5). A precursor of this mutant Gαs, Gαs(α3β5), was recently used to increase binding of ^125I-[Aib^1,3,M]PTH(1-15)NH2 to PTHR-delNt in COS-7 cell membranes (Dean, T., (2006) Mol Endocrinol 20:931-942). Gαs^ND, which contains the same five amino acid replacement of corresponding Gαi residues in the α3β5 loop as Gαs(α3β5), plus the point mutations of Gly^226 to Ala, which increases affinity for Gβ/γ, and Ala^366 to Ser, which decreases affinity for GDP, yields approximately two-fold higher levels of specific binding of ^125I-[Aib^1,3,M]PTH(1-15)NH2 than does Gαs(α3β5) (data not shown). For the current membrane preparations, COS-7 cells were co-transfected in six-well plates using 1 μg of each plasmid DNA encoding PTHR-delNt and Gαs^ND, and 6 μl of Fugene-6 reagent (Roche Diagnostics, Indianapolis Ind.) per well. Cells were harvested three days after transfection, and membranes were prepared as described (Dean, T., et al. (2006) Mol Endocrinol 20:931-942).
Receptor binding—Binding to the wild-type human PTHR in intact HKRK-B7 cells and ROS 17/2.8 cells was assessed using ^125I-PTH(1-34) as a tracer radioligand, as described (Shimizu, M., (2001) Endocrinology 142:3068-3074). In brief, the cells in 24-well plates (about 500,000 cells per well) were incubated in binding buffer containing radioligand (about 100,000 cpm per well) with or without unlabeled peptide ligand (3×10^−9 to 1×10^−5 M) for four hours at 15° C. The binding mixture was then removed by aspiration, the cells were rinsed three times with binding buffer, lysed in 1 M NaOH, and the entire lysate was counted for gamma-irradiation in a gamma counter. Binding to PTHR-delNt in COS-7 cell membranes was assessed in 96-well, vacuum filtration plates (Multiscreen-Durapore HV, […] membranes, Millipore Corp., Millford, Mass.) using ^125I-[Aib^1,3,M]PTH(1-15)NH2 as a tracer radioligand, as described (Dean, T., (2006) Mol Endocrinol 20:931-942). In brief, cell membranes (20 μg/well) were incubated in membrane binding buffer containing radioligand (30,000 cpm/well) with or without unlabeled peptide ligand (3×10^−9 to 1×10^−5 M) for 90 minutes at 21° C. The plates were then subject to rapid vacuum filtration, the filters were washed once with buffer, detached from the plate and counted for gamma-irradiation in a gamma counter. Non-specific binding was defined as the binding observed in the presence of 1×10^−6 M PTH(1-31)NH2 for HKRK-B7 and ROS 17/2.8 cells, and 1×10^−6 M [Aib^1,3,M]PTH(1-15)NH2 for PTHR-delNt. Specifically bound radioactivity was calculated as a percentage of the radioactivity specifically bound in the absence of competing ligand. […]

[2] = [Ala1,Arg19]hPTH(1-31)NH2 analogs

| Compound | CD helical residues [1, 2] | reduction (alteration) of binding affinity for PTHR-delNt relative to parent peptide (PTHR-delNt; COS-7 membranes) | IC50 (PTHR-delNt; [2]) [nM] | CD helical residues ([1]; hPTH(1-31)NH2 analogs) | IC50 (PTHR-delNt; hPTH(1-31)NH2 analogs) [nM] | effect on binding to PTHR-delNt (in words) (PTHR-delNt; COS-7 membranes) |
| --- | --- | --- | --- | --- | --- | --- |
| CC[C@H](C)[C@H](NC(=O)[C@H](CCC(=O)O)NC(=O)[C@H](CO)NC(=O)[C@@H](NC(=O)[C@H](C)N)C(C)C)C(=O)N[C@@H](CCC(N)=O)C(=O)N[C@@H](CC(C)C)C(=O)N[C@@H](CCSC)C(=O)N[C@@H](Cc1c[nH]cn1)C(=O)N[C@@H](CC(N)=O)C(=O)N[C@@H](CC(C)C)C(=O)NCC(=O)N[C@@H](CCCCN)C(=O)N[C@@H](Cc1c[nH]cn1)C(=O)N[C@@H](CC(C)C)C(=O)N[C@@H](CC(N)=O)C(=O)N[C@@H](CO)C(=O)N[C@@H](CCSC)C(=O)N[C@@H](CCCNC(=N)N)C(=O)N[C@@H](CCCNC(=N)N)C(=O)N[C@H](C(=O)N[C@@H](CCC(=O)O)C(=O)N[C@@H](Cc1c[nH]c2ccccc12)C(=O)N[C@@H](CC(C)C)C(=O)N[C@@H](CCCNC(=N)N)C(=O)N[C@@H](CC1CCCCC1)C(=O)N[C@@H](CCCCN)C(=O)N[C@@H](CC(C)C)C(=O)N[C@@H](CCC(N)=O)C(=O)N[C@@H](CC(=O)O)C(=O)N[C@H](C(N)=O)C(C)C)C(C)C [Lys^26→Cha] (H-AVSEIQLMHNLGKHLNSMRRVEWLR[Cha]KLQDV-NH2; N-terminus assumed) | 6 | approximately five- to seven-fold | 1870 ± 281 | – | – | – |
| SVSEIQLMHNLGKHLNSMERVEWLRKKLQAV-NH2 [Asp^30→Ala] | – | – | – | 10 | 1540 | – |
| AVSEIQLMHNLGKHLNSMRRVEELRKKLQDV-NH2 [Trp^23→Glu] | 7 | less than three-fold | 434 ± 84 | – | – | only mildly impaired binding to PTHR-delNt |
| SVSEIQLMHNLGKHLNAMERVEWLRKKLQDV-NH2 [Ser^17→Ala] | – | – | – | 10 | 4580 | – |
| CC[C@H](C)[C@H](NC(=O)[C@H](CCC(=O)O)NC(=O)[C@H](CO)NC(=O)[C@@H](NC(=O)[C@H](C)N)C(C)C)C(=O)N[C@@H](CCC(N)=O)C(=O)N[C@@H](CC(C)C)C(=O)N[C@@H](CCSC)C(=O)N[C@@H](Cc1c[nH]cn1)C(=O)N[C@@H](CC(N)=O)C(=O)N[C@@H](CC(C)C)C(=O)NCC(=O)N[C@@H](CCCCN)C(=O)N[C@@H](Cc1c[nH]cn1)C(=O)N[C@@H](CC(C)C)C(=O)N[C@@H](CC(N)=O)C(=O)N[C@@H](CO)C(=O)N[C@@H](CCSC)C(=O)N[C@@H](CCCNC(=N)N)C(=O)N[C@@H](CCCNC(=N)N)C(=O)N[C@H](C(=O)N[C@@H](CCC(=O)O)C(=O)N[C@@H](Cc1c[nH]c2ccccc12)C(=O)N[C@@H](CC(C)C)C(=O)N[C@@H](CCCNC(=N)N)C(=O)N[C@@H](CCCCN)C(=O)N[C@@H](CC1CCCCC1)C(=O)N[C@@H](CC(C)C)C(=O)N[C@@H](CCC(N)=O)C(=O)N[C@@H](CC(=O)O)C(=O)N[C@H](C(N)=O)C(C)C)C(C)C [Lys^27→Cha] (H-AVSEIQLMHNLGKHLNSMRRVEWLRK[Cha]LQDV-NH2; N-terminus assumed) | 18 | – | 629 ± 72 | – | – | – |
| CC[C@H](C)[C@H](NC(=O)[C@H](CCC(=O)O)NC(=O)[C@H](CO)NC(=O)[C@@H](NC(=O)[C@H](C)N)C(C)C)C(=O)N[C@@H](CCC(N)=O)C(=O)N[C@@H](CC(C)C)C(=O)N[C@@H](CCSC)C(=O)N[C@@H](Cc1c[nH]cn1)C(=O)N[C@@H](CC(N)=O)C(=O)N[C@@H](CC(C)C)C(=O)NCC(=O)N[C@@H](CCCCN)C(=O)N[C@@H](Cc1c[nH]cn1)C(=O)N[C@@H](CC(C)C)C(=O)N[C@@H](CC(N)=O)C(=O)N[C@@H](CO)C(=O)N[C@@H](CCSC)C(=O)N[C@@H](CC1CCCCC1)C(=O)N[C@@H](CCCNC(=N)N)C(=O)N[C@H](C(=O)N[C@@H](CCC(=O)O)C(=O)N[C@@H](Cc1c[nH]c2ccccc12)C(=O)N[C@@H](CC(C)C)C(=O)N[C@@H](CCCNC(=N)N)C(=O)N[C@@H](CCCCN)C(=O)N[C@@H](CCCCN)C(=O)N[C@@H](CC(C)C)C(=O)N[C@@H](CCC(N)=O)C(=O)N[C@@H](CC(=O)O)C(=O)N[C@H](C(N)=O)C(C)C)C(C)C [Arg^19→Cha] (H-AVSEIQLMHNLGKHLNSM[Cha]RVEWLRKKLQDV-NH2; N-terminus assumed) | 10 | – | 780 ± 83 | – | – | – |
| CC[C@H](C)[C@H](NC(=O)[C@H](CCC(=O)O)NC(=O)[C@H](CO)NC(=O)[C@@H](NC(=O)[C@H](C)N)C(C)C)C(=O)N[C@@H](CCC(N)=O)C(=O)N[C@@H](CC(C)C)C(=O)N[C@@H](CCSC)C(=O)N[C@@H](Cc1c[nH]cn1)C(=O)N[C@@H](CC(N)=O)C(=O)N[C@@H](CC(C)C)C(=O)NCC(=O)N[C@@H](CCCCN)C(=O)N[C@@H](Cc1c[nH]cn1)C(=O)N[C@@H](CC(C)C)C(=O)N[C@@H](CC(N)=O)C(=O)N[C@@H](CC1CCCCC1)C(=O)N[C@@H](CCSC)C(=O)N[C@@H](CCCNC(=N)N)C(=O)N[C@@H](CCCNC(=N)N)C(=O)N[C@H](C(=O)N[C@@H](CCC(=O)O)C(=O)N[C@@H](Cc1c[nH]c2ccccc12)C(=O)N[C@@H](CC(C)C)C(=O)N[C@@H](CCCNC(=N)N)C(=O)N[C@@H](CCCCN)C(=O)N[C@@H](CCCCN)C(=O)N[C@@H](CC(C)C)C(=O)N[C@@H](CCC(N)=O)C(=O)N[C@@H](CC(=O)O)C(=O)N[C@H](C(N)=O)C(C)C)C(C)C [Ser^17→Cha] (H-AVSEIQLMHNLGKHLN[Cha]MRRVEWLRKKLQDV-NH2; N-terminus assumed) | 9 | – | 179 ± 41 | – | – | – |

Reference: US8143374B2, “Polypeptide derivatives of parathyroid hormone (PTH)” (The General Hospital Corporation, priority 2006, dated 2012)
